Laboratory results from patent publication US20060069132A1, “Azolecarboxamide herbicides” (priority 2004, published 2006).

Columns and labels:
barnyardgrass [1] = assay: Test A pre-/postemergence herbicide test; assay type: in vivo, Echinochloa crus-galli; details: for Plant response rating, Barnyardgrass: Postemergence; for Barnyardgrass plant response rating: Preemergence
Method in brief: (§1)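 Greenhouse injury scoring (0–100, complete control = 100) at approximately ten days follows simultaneous pre- and postemergence application. Soil received a directed spray after seeding; seedlings of 2–10 cm at the one- to two-leaf stage were sprayed to runoff.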

large crabgrass [2] = assay: Test A pre-/postemergence herbicide test; assay type: in vivo, Digitaria sanguinalis; details: for Plant response rating, Crabgrass, Large: Postemergence; for Crabgrass, Large plant response rating: Preemergence
Method in brief: as §1

giant foxtail [3] = assay: Test A pre-/postemergence herbicide test; assay type: in vivo, Setaria faberi; details: for Plant response rating, Foxtail, Giant: Postemergence; for Foxtail, Giant plant response rating: Preemergence
Method in brief: as §1

morningglory [4] = assay: Test A pre-/postemergence herbicide test; assay type: in vivo, Ipomoea spp.; details: for Plant response rating, Morningglory: Postemergence; for Morningglory plant response rating: Preemergence
Method in brief: as §1

redroot pigweed = assay: Test A pre-/postemergence herbicide test; assay type: in vivo, Amaranthus retroflexus; details: for Plant response rating, Pigweed: Postemergence; for Pigweed plant response rating: Preemergence
Method in brief: as §1

velvetleaf [5] = assay: Test A pre-/postemergence herbicide test; assay type: in vivo, Abutilon theophrasti; details: for Plant response rating, Velvetleaf: Postemergence, 0 to 100 scale, 0 no effect, 100 complete control; for Velvetleaf plant response rating: Preemergence, visual rating, 0 to 100 scale (0 no effect, 100 complete control)
Method in brief: as §1

barnyardgrass [6] = assay: Test B pre-/postemergence herbicide test; assay type: in vivo, Echinochloa crus-galli
Method in brief: (§2)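 Greenhouse pot assay with simultaneous preemergence (treated seed) and postemergence (2–18 cm seedlings) applications of surfactant-containing, non-phytotoxic solvent formulations. Response scored visually 13–15 days later on a 0–100 scale, 100 meaning complete control.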

Surinam grass = assay: Test B pre-/postemergence herbicide test; assay type: in vivo, Urochloa decumbens; details: for Surinam Grass plant response rating: postemergence, visual rating
Method in brief: (§3)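 Visual rating, 0 (no effect) to 100 (complete control), versus untreated controls after 13–15 d in greenhouse. Pre- and postemergence applications (postemergence plants 2–18 cm, 1–4 leaves); flooded paddy arm at 2-leaf stage. Compounds in non-phytotoxic solvent plus surfactant.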

cocklebur = assay: Test B pre-/postemergence herbicide test; assay type: in vivo, Xanthium strumarium
Method in brief: as §2

corn = assay: Test B pre-/postemergence herbicide test; assay type: in vivo, Zea mays
Method in brief: as §3

large crabgrass [7] = assay: Test B pre-/postemergence herbicide test; assay type: in vivo, Digitaria sanguinalis
Method in brief: as §3

giant foxtail [8] = assay: Test B pre-/postemergence herbicide test; assay type: in vivo, Setaria faberi
Method in brief: as §3

lambsquarters = assay: Test B pre-/postemergence herbicide test; assay type: in vivo, Chenopodium album; details: for Lambsquarters plant response rating: postemergence, visual rating
Method in brief: as §3

morningglory [9] = assay: Test B pre-/postemergence herbicide test; assay type: in vivo, Ipomoea coccinea; details: for Morningglory plant response rating: postemergence, visual rating
Method in brief: as §2

pigweed = assay: Test B pre-/postemergence herbicide test; assay type: in vivo, Amaranthus retroflexus; details: for Pigweed plant response rating: postemergence, visual rating
Method in brief: as §3

rice [10] = assay: Test B pre-/postemergence herbicide test; assay type: in vivo, Oryza sativa; details: preemergence, 125 g ai/ha; 0 to 100 scale, 0 is no effect, 100 is complete control
Method in brief: as §3

velvetleaf [11] = assay: Test B pre-/postemergence herbicide test; assay type: in vivo, Abutilon theophrasti; details: for Velvetleaf plant response rating: postemergence, visual rating
Method in brief: as §3

blackgrass = assay: Test B postemergence herbicide test; assay type: in vivo, Alopecurus myosuroides; details: scale 0 (no effect) to 100 (complete control); for Plant response rating, Blackgrass: Postemergence, 500 g ai/ha, visual rating after 13 to 15 days; for Blackgrass plant response rating: postemergence, 125 g ai/ha, visual rating
Method in brief: (§4)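 Greenhouse test; postemergence application to plants at 1–4 leaves (2–18 cm); paddy species at 2 leaves; evaluated visually vs controls at 13–15 days; scale 0–100 (100 = complete control).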

wheat = assay: Test B postemergence herbicide test; assay type: in vivo, Triticum aestivum; design: key to Wheat plant response rating: 0 = no effect, 100 = complete control; details: scale 0 (no effect) to 100 (complete control); for Plant response rating, Wheat: Postemergence, 500 g ai/ha, visual rating after 13 to 15 days; for Wheat plant response rating: postemergence, 125 g ai/ha, visual rating
Method in brief: as §4

wild oat = assay: Test B postemergence herbicide test; assay type: in vivo, Avena fatua; details: scale 0 (no effect) to 100 (complete control); for Plant response rating, Oat, Wild: Postemergence, 500 g ai/ha, visual rating after 13 to 15 days; for Oat, Wild plant response rating: postemergence, 125 g ai/ha, visual rating
Method in brief: as §4

rice [12] = assay: Test B flooded paddy test; assay type: in vivo, Oryza sativa; details: 1000 g ai/ha, visual rating, scale 0 to 100 (0 no effect, 100 complete control), 13 to 15 days
Method in brief: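 Read-out: visual comparison with controls, scored 0 to 100, where 100 means complete control and 0 no effect. Formulated chemicals were applied postemergence to plants 2–18 cm tall (1- to 4-leaf), or to flooded-paddy plants at the 2-leaf stage, then held 13 to 15 days under glass.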

[13] = tested on: small flower umbrella sedge; assay: Test B flooded paddy test; assay type: in vivo, Cyperus difformis; details: 1000 g ai/ha, visual rating, scale 0 to 100 (0 no effect, 100 complete control), 13 to 15 days
Method in brief: as §4

ducksalad = assay: Test B flooded paddy test; assay type: in vivo, Heteranthera limosa; details: 1000 g ai/ha, visual rating, scale 0 to 100 (0 no effect, 100 complete control), 13 to 15 days
Method in brief: as §4

barnyardgrass [14] = assay: Test B flooded paddy test; assay type: in vivo, Echinochloa crus-galli; details: 1000 g ai/ha, visual rating, scale 0 to 100 (0 no effect, 100 complete control), 13 to 15 days
Method in brief: as §4

[15] = 500 g ai/ha, 0 to 100 scale, 0 no effect, 100 complete control
[16] = 2000 g ai/ha, 0 to 100 scale, 0 no effect, 100 complete control
[17] = 500 g ai/ha, visual rating, 0 to 100 scale (0 no effect, 100 complete control)
[18] = Postemergence, 500 g ai/ha, visual rating after 13 to 15 days, scale 0 (no effect) to 100 (complete control)
[19] = Preemergence, 500 g ai/ha, scale 0 to 100
[20] = postemergence, 125 g ai/ha, visual rating, scale 0 (no effect) to 100 (complete control)
[21] = preemergence, 125 g ai/ha, 0 to 100 scale, 0 is no effect, 100 is complete control
[22] = 125 g ai/ha, scale 0 (no effect) to 100 (complete control)

CCOC(=O)c1ccc(F)c(NC(=O)c2cc(C(C)(C)C)nn2CC)c1 [Compound 70]
45: Crabgrass, Large plant response rating (large crabgrass [2]; [16])
0: Pigweed plant response rating (redroot pigweed; [17]) | Cocklebur plant response rating (cocklebur; [19]) | Plant response rating, Cocklebur (cocklebur; [21]) | Plant response rating, Rice (rice [10]) | Ducksalad plant response rating (ducksalad)
80: Plant response rating, Lambsquarters (lambsquarters; [18]) | Lambsquarters plant response rating (lambsquarters; [22])
5: Pigweed plant response rating (redroot pigweed; [16])
30: Plant response rating, Barnyardgrass (barnyardgrass [1]; [16]) | Plant response rating, Crabgrass, Large (large crabgrass [2]; [16]) | Plant response rating, Morningglory (morningglory [4]; [16]) | Plant response rating, Velvetleaf (velvetleaf [5]; 2000 g ai/ha) | Plant response rating, Foxtail, Giant (giant foxtail [8]; [18]) | Plant response rating, Morningglory (morningglory [9]; [18]) | Pigweed plant response rating (pigweed; [22]) | Plant response rating, Pigweed (pigweed; [21]) | Plant response rating, Velvetleaf (velvetleaf [11]; [21]) | Sedge, Umbrella plant response rating [13]
10: Morningglory plant response rating (morningglory [4]; [16]) | Velvetleaf plant response rating (velvetleaf [5]; 500 g ai/ha) | Plant response rating, Corn (corn; [21]) | Plant response rating, Morningglory (morningglory [9]; [21]) | Blackgrass plant response rating (blackgrass) | Wheat plant response rating (wheat) | Rice plant response rating (rice [12]) | Barnyardgrass plant response rating (barnyardgrass [14])
90: Plant response rating, Foxtail, Giant (giant foxtail [8]; [21])
75: Plant response rating, Pigweed (redroot pigweed; [16])
60: Plant response rating, Pigweed (redroot pigweed; [15]) | Plant response rating, Velvetleaf (velvetleaf [11]; [18])
40: Foxtail, Giant plant response rating (giant foxtail [3]; [17]) | Plant response rating, Barnyardgrass (barnyardgrass [6]; [21]) | Plant response rating, Surinam Grass (Surinam grass; [21])
100: Plant response rating, Cocklebur (cocklebur; [18]) | Crabgrass, Large plant response rating (large crabgrass [7]; [19]) | Plant response rating, Crabgrass, Large (large crabgrass [7]; [21]) | Foxtail, Giant plant response rating (giant foxtail [8]; [19])
55: Foxtail, Giant plant response rating (giant foxtail [3]; [16])
50: Barnyardgrass plant response rating (barnyardgrass [6]; [19]) | Cocklebur plant response rating (cocklebur; [20]) | Plant response rating, Pigweed (pigweed; [18])
25: Plant response rating, Barnyardgrass (barnyardgrass [1]; [15]) | Plant response rating, Crabgrass, Large (large crabgrass [2]; [15]) | Plant response rating, Morningglory (morningglory [4]; [15])
35: Crabgrass, Large plant response rating (large crabgrass [2]; [17])
20: Barnyardgrass plant response rating (barnyardgrass [1]; [17]) | Barnyardgrass plant response rating (barnyardgrass [1]; [16]) | Plant response rating, Foxtail, Giant (giant foxtail [3]; [15]) | Plant response rating, Foxtail, Giant (giant foxtail [3]; [16]) | Morningglory plant response rating (morningglory [4]; [17]) | Velvetleaf plant response rating (velvetleaf [5]; 2000 g ai/ha) | Plant response rating, Barnyardgrass (barnyardgrass [6]; [18]) | Barnyardgrass plant response rating (barnyardgrass [6]; [20]) | Plant response rating, Surinam Grass (Surinam grass; [18]) | Surinam Grass plant response rating (Surinam grass; [22]) | Plant response rating, Corn (corn; [18]) | Corn plant response rating (corn; [19]) | Corn plant response rating (corn; [20]) | Plant response rating, Crabgrass, Large (large crabgrass [7]; [18]) | Crabgrass, Large plant response rating (large crabgrass [7]; [20]) | Foxtail, Giant plant response rating (giant foxtail [8]; [20]) | Morningglory plant response rating (morningglory [9]; [22]) | Velvetleaf plant response rating (velvetleaf [11]; [22]) | Plant response rating, Blackgrass (blackgrass) | Plant response rating, Wheat (wheat) | Plant response rating, Oat, Wild (wild oat) | Oat, Wild plant response rating (wild oat)

CCn1nc(C(C)(C)C)cc1C(=O)Nc1cccc(C(=O)OCC(F)(F)F)c1 [Compound 83]
0: Barnyardgrass plant response rating (barnyardgrass [1]; [17]) | Barnyardgrass plant response rating (barnyardgrass [1]; [16]) | Crabgrass, Large plant response rating (large crabgrass [2]; [17]) | Crabgrass, Large plant response rating (large crabgrass [2]; [16]) | Foxtail, Giant plant response rating (giant foxtail [3]; [17]) | Foxtail, Giant plant response rating (giant foxtail [3]; [16]) | Pigweed plant response rating (redroot pigweed; [17]) | Pigweed plant response rating (redroot pigweed; [16]) | Velvetleaf plant response rating (velvetleaf [5]; 500 g ai/ha) | Velvetleaf plant response rating (velvetleaf [5]; 2000 g ai/ha) | Barnyardgrass plant response rating (barnyardgrass [6]; [19]) | Plant response rating, Barnyardgrass (barnyardgrass [6]; [21]) | Plant response rating, Surinam Grass (Surinam grass; [21]) | Cocklebur plant response rating (cocklebur; [19]) | Cocklebur plant response rating (cocklebur; [20]) | Corn plant response rating (corn; [19]) | Plant response rating, Corn (corn; [21]) | Crabgrass, Large plant response rating (large crabgrass [7]; [19]) | Plant response rating, Crabgrass, Large (large crabgrass [7]; [21]) | Foxtail, Giant plant response rating (giant foxtail [8]; [19]) | Foxtail, Giant plant response rating (giant foxtail [8]; [20]) | Plant response rating, Foxtail, Giant (giant foxtail [8]; [21]) | Lambsquarters plant response rating (lambsquarters; [22]) | Plant response rating, Lambsquarters (lambsquarters; [21]) | Morningglory plant response rating (morningglory [9]; [22]) | Plant response rating, Morningglory (morningglory [9]; [21]) | Plant response rating, Pigweed (pigweed; [21]) | Plant response rating, Rice (rice [10]) | Plant response rating, Velvetleaf (velvetleaf [11]; [21]) | Plant response rating, Blackgrass (blackgrass) | Blackgrass plant response rating (blackgrass)
50: Plant response rating, Barnyardgrass (barnyardgrass [6]; [18]) | Velvetleaf plant response rating (velvetleaf [11]; [22]) | Sedge, Umbrella plant response rating [13]
70: Pigweed plant response rating (pigweed; [22]) | Plant response rating, Velvetleaf (velvetleaf [11]; [18])
10: Plant response rating, Morningglory (morningglory [4]; [15]) | Plant response rating, Morningglory (morningglory [4]; [16]) | Morningglory plant response rating (morningglory [4]; [16]) | Barnyardgrass plant response rating (barnyardgrass [6]; [20]) | Corn plant response rating (corn; [20]) | Plant response rating, Foxtail, Giant (giant foxtail [8]; [18]) | Oat, Wild plant response rating (wild oat) | Rice plant response rating (rice [12]) | Barnyardgrass plant response rating (barnyardgrass [14])
45: Plant response rating, Pigweed (redroot pigweed; [15])
5: Plant response rating, Barnyardgrass (barnyardgrass [1]; [15])
25: Plant response rating, Crabgrass, Large (large crabgrass [2]; [16])
40: Plant response rating, Surinam Grass (Surinam grass; [18])
20: Plant response rating, Barnyardgrass (barnyardgrass [1]; [16]) | Plant response rating, Foxtail, Giant (giant foxtail [3]; [15]) | Plant response rating, Foxtail, Giant (giant foxtail [3]; [16]) | Plant response rating, Velvetleaf (velvetleaf [5]; 2000 g ai/ha) | Surinam Grass plant response rating (Surinam grass; [22]) | Plant response rating, Cocklebur (cocklebur; [18]) | Wheat plant response rating (wheat) | Plant response rating, Oat, Wild (wild oat)
100: Plant response rating, Pigweed (pigweed; [18])
60: Plant response rating, Lambsquarters (lambsquarters; [18])
55: Plant response rating, Pigweed (redroot pigweed; [16])
30: Plant response rating, Crabgrass, Large (large crabgrass [2]; [15]) | Morningglory plant response rating (morningglory [4]; [17]) | Plant response rating, Corn (corn; [18]) | Plant response rating, Crabgrass, Large (large crabgrass [7]; [18]) | Crabgrass, Large plant response rating (large crabgrass [7]; [20]) | Plant response rating, Morningglory (morningglory [9]; [18]) | Plant response rating, Wheat (wheat) | Ducksalad plant response rating (ducksalad)
